In one experiment the target is T1, COX-2 (Homo sapiens, UniProt P35354).
T1 construct: gene PTGS2; homodimer
T1 sequence (P35354 18-604): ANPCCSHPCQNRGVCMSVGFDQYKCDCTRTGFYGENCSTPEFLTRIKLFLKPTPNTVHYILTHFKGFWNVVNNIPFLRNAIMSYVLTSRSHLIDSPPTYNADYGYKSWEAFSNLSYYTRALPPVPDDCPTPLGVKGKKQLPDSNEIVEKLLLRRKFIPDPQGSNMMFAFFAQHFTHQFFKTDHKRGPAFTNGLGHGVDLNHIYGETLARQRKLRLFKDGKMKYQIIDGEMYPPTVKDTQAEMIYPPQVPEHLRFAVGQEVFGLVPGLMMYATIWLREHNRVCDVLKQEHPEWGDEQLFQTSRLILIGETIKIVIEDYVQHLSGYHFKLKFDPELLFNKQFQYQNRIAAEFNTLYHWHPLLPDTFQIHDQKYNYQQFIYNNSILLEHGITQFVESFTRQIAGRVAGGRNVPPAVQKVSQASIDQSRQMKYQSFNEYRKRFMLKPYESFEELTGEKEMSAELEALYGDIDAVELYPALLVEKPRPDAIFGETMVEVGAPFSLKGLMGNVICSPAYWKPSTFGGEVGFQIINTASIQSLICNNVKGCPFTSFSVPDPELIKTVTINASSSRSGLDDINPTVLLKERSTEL
The experiment in a line: colorimetric COX peroxidase inhibitor screening kit, […] nm. The format is biochemical. To be noted: tested at 100 µM only, 2 min, RT; unreliable.

Another experiment addresses T2, COX-1 (Ovis aries, UniProt P05979).
T2 construct: gene PTGS1; homodimer
T2 sequence (P05979 25-600): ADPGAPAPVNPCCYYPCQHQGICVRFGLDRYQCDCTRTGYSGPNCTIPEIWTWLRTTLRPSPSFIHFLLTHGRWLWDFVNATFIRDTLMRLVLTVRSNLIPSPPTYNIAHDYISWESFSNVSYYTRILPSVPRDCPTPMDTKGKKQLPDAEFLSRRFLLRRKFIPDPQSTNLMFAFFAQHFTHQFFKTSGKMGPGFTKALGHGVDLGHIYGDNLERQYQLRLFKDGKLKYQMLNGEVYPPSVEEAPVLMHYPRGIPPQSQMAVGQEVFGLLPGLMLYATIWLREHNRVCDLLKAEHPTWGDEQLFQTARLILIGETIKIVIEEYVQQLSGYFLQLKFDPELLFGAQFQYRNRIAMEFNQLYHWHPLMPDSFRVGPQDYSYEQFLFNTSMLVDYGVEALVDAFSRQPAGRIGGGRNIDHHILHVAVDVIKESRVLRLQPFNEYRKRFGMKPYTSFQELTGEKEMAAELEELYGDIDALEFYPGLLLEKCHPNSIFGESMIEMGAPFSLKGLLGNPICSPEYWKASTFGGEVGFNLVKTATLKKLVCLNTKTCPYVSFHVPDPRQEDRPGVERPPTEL
The description is as above. The format is biochemical. To be noted: tested at 100 µM only, 2 min, RT; unreliable.

SMILES strings stand for the structures.

With `Cc1c2c(c(C)n1-c1ccccc1)C(=O)N(CN1CCOCC1)C2=O` [2l, 4,6-dimethyl-5-phenyl-2-[(morpholinyl)methyl]pyrrolo[3,4-c]pyrrole-1,3(2H,5H)-dione], the “Cyclooxygenase Inhibition Assay IC50 [μM] / COX-2” value on COX-2 worked out at 59.33 ± 0.09 µM. Besides, on COX-1, the “Cyclooxygenase Inhibition Assay IC50 [μM] / COX-1” value was 82.72 ± 0.04 µM.

As to `CCCCn1c(C)c2c(c1C)C(=O)N(CN1CCC(c3ccccc3)CC1)C2=O` [2m, 4,6-dimethyl-5-n-butyl-2-[(4-phenyl-1-piperidinyl)methyl]pyrrolo[3,4-c]pyrrole-1,3(2H,5H)-dione], the “Cyclooxygenase Inhibition Assay IC50 [μM] / COX-2” value at COX-2 is 60.39 ± 0.02 µM. For the same compound, the “Cyclooxygenase Inhibition Assay IC50 [μM] / COX-1” value at COX-1 was determined as 88.15 ± 0.02 µM.

For the compound `CCCCn1c(C)c2c(c1C)C(=O)N(CN1CCN(c3ncccn3)CC1)C2=O` [2f, 4,6-dimethyl-5-n-butyl-2-{[4-(2-pyrimidinyl)piperazin-1-yl]methyl}pyrrolo[3,4-c]pyrrole-1,3(2H,5H)-dione], the “Cyclooxygenase Inhibition Assay IC50 [μM] / COX-2” value on COX-2 was found to be 58.87 ± 0.08 µM. Moreover, at COX-1, the “Cyclooxygenase Inhibition Assay IC50 [μM] / COX-1” value turned out to be 80.51 ± 0.06 µM.

`Cc1c2c(c(C)n1-c1ccccc1Cl)C(=O)N(CN1CCN(C3CCCCC3)CC1)C2=O` [2h, 4,6-dimethyl-5-(o-chlorophenyl)-2-[(4-cyclohexyl-1-piperazinyl)methyl]pyrrolo[3,4-c]pyrrole-1,3(2H,5H)-dione]: the “Cyclooxygenase Inhibition Assay IC50 [μM] / COX-2” value on COX-2 turned out to be 59.37 ± 0.05 µM. The “Cyclooxygenase Inhibition Assay IC50 [μM] / COX-1” value at COX-1 stood at 76.54 ± 0.06 µM.

As to `Cc1c2c(c(C)n1-c1ccccc1)C(=O)N(CN1CCN(c3ccc(Br)cc3)CC1)C2=O` [2a, 4,6-dimethyl-5-phenyl-2{[4-(p-bromophenyl)-1-piperazinyl]methyl}pyrrolo[3,4-c]pyrrole-1,3(2H,5H)-dione], at COX-2, the “Cyclooxygenase Inhibition Assay IC50 [μM] / COX-2” value turned out to be 60.85 ± 0.02 µM. Also, at COX-1, the “Cyclooxygenase Inhibition Assay IC50 [μM] / COX-1” value stood at 87.90 ± 0.03 µM.

`CCCCn1c(C)c2c(c1C)C(=O)N(CN1CCN(CCO)CC1)C2=O` [2j, 4,6-dimethyl-5-n-butyl-2-{[4-hydroxyethyl-1-piperazinyl]methyl}pyrrolo[3,4-c]pyrrole-1,3(2H,5H)-dione]: the “Cyclooxygenase Inhibition Assay IC50 [μM] / COX-2” value at COX-2 turned out to be 59.77 ± 0.11 µM. At COX-1, the “Cyclooxygenase Inhibition Assay IC50 [μM] / COX-1” value is 84.90 ± 0.05 µM.

Consider `Cc1c2c(c(C)n1-c1ccccc1Cl)C(=O)N(CN1CCN(c3ccc(Br)cc3)CC1)C2=O` [2b, 4,6-dimethyl-5-(o-chlorophenyl)-2-{[4-(p-bromophenyl)-1-piperazinyl]methyl}pyrrolo[3,4-c]pyrrole-1,3(2H,5H)-dione], for which the “Cyclooxygenase Inhibition Assay IC50 [μM] / COX-2” value on COX-2 was determined as 61.46 ± 0.02 µM. On COX-1, the “Cyclooxygenase Inhibition Assay IC50 [μM] / COX-1” value came to 94.17 ± 0.04 µM.

As to `Cc1c2c(c(C)n1-c1ccccc1)C(=O)N(CN1CCNCC1)C2=O` [2k, 4,6-dimethyl-5-phenyl-2-[(piperazinyl)methyl]pyrrolo[3,4-c]pyrrole-1,3(2H,5H)-dione], the “Cyclooxygenase Inhibition Assay IC50 [μM] / COX-2” value at COX-2 came to 58.43 ± 0.06 µM. The “Cyclooxygenase Inhibition Assay IC50 [μM] / COX-1” value at COX-1 turned out to be 83.47 ± 0.05 µM.

Take `CCCCn1c(C)c2c(c1C)C(=O)N(CN1CCC(O)(c3ccc(Cl)cc3)CC1)C2=O` [2o, 4,6-dimethyl-5-n-butyl-2-{[4-(p-chlorophenyl)-4-hydroxypiperidin-1-yl]methyl}pyrrolo[3,4-c]pyrrole-1,3(2H,5H)-dione]: the “Cyclooxygenase Inhibition Assay IC50 [μM] / COX-2” value on COX-2 is 58.38 ± 0.16 µM. For the same compound, the “Cyclooxygenase Inhibition Assay IC50 [μM] / COX-1” value on COX-1 worked out at 78.25 ± 0.10 µM.

On to `CCCCn1c(C)c2c(c1C)C(=O)N(CN1CCN(C3CCCCC3)CC1)C2=O` [2i, 4,6-dimethyl-5-n-butyl-2-[(4-cyclohexyl-1-piperazinyl)methyl]pyrrolo[3,4-c]pyrrole-1,3(2H,5H)-dione], for which the “Cyclooxygenase Inhibition Assay IC50 [μM] / COX-2” value on COX-2 turned out to be 60.96 ± 0.04 µM. In addition, the “Cyclooxygenase Inhibition Assay IC50 [μM] / COX-1” value on COX-1 is recorded as 79.87 ± 0.07 µM.

On to `Cc1c2c(c(C)n1-c1ccccc1)C(=O)N(CN1CCN(c3ccccc3C#N)CC1)C2=O` [2c, 4,6-dimethyl-5-phenyl-2{[4-(o-cyanophenyl)-1-piperazinyl]methyl}pyrrolo[3,4-c]pyrrole-1,3(2H,5H)-dione], for which the “Cyclooxygenase Inhibition Assay IC50 [μM] / COX-2” value on COX-2 came to 61.53 ± 0.09 µM. Moreover, the “Cyclooxygenase Inhibition Assay IC50 [μM] / COX-1” value on COX-1 was determined as 94.56 ± 0.02 µM.

As to `Cc1c2c(c(C)n1-c1ccccc1)C(=O)N(CN1CCN(C3CCCCC3)CC1)C2=O` [2g, 4,6-dimethyl-5-phenyl-2-[(4-cyclohexyl-1-piperazinyl)methyl]pyrrolo[3,4-c]pyrrole-1,3(2H,5H)-dione], on COX-2, the “Cyclooxygenase Inhibition Assay IC50 [μM] / COX-2” value stood at 59.92 ± 0.05 µM. For the same compound, at COX-1, the “Cyclooxygenase Inhibition Assay IC50 [μM] / COX-1” value turned out to be 80.25 ± 0.06 µM.

For `Cc1c2c(c(C)n1-c1ccccc1)C(=O)N(CN1CCN(c3cccc(C(F)(F)F)c3)CC1)C2=O` [2d, 4,6-dimethyl-5-phenyl-2{[4-(m-trifluoromethylphenyl)-1-piperazinyl]methyl}pyrrolo[3,4-c]pyrrole-1,3(2H,5H)-dione], the “Cyclooxygenase Inhibition Assay IC50 [μM] / COX-2” value at COX-2 was 60.24 ± 0.03 µM. Also, the “Cyclooxygenase Inhibition Assay IC50 [μM] / COX-1” value at COX-1 was 77.46 ± 0.06 µM.

As for `CCCCn1c(C)c2c(c1C)C(=O)N(CN1CCC(O)(c3ccc(Br)cc3)CC1)C2=O` [2n, 4,6-dimethyl-5-n-butyl-2-{[4-(p-bromophenyl)-4-hydroxypiperidin-1-yl]methyl}pyrrolo[3,4-c]pyrrole-1,3(2H,5H)-dione], at COX-2, the “Cyclooxygenase Inhibition Assay IC50 [μM] / COX-2” value came out at 57.65 ± 0.04 µM. Besides, the “Cyclooxygenase Inhibition Assay IC50 [μM] / COX-1” value on COX-1 is 77.59 ± 0.09 µM.

For the compound `CCCCn1c(C)c2c(c1C)C(=O)N(CN1CCC(O)(Cc3ccccc3)CC1)C2=O` [2p, 4,6-dimethyl-5-n-butyl-2-{[4-benzyl-4-hydroxypiperidin-1-yl]methyl}pyrrolo[3,4-c]pyrrole-1,3(2H,5H)-dione], the “Cyclooxygenase Inhibition Assay IC50 [μM] / COX-2” value on COX-2 was 59.37 ± 0.07 µM. Besides, the “Cyclooxygenase Inhibition Assay IC50 [μM] / COX-1” value on COX-1 is given as 82.94 ± 0.04 µM.

With `CCCCn1c(C)c2c(c1C)C(=O)N(CN1CCN(c3ccc(C)cc3)CC1)C2=O` [2e, 4,6-dimethyl-5-n-butyl-2-{[4-(p-methylphenyl)-1-piperazinyl]methyl}pyrrolo[3,4-c]pyrrole-1,3-(2H,5H)-dione], the “Cyclooxygenase Inhibition Assay IC50 [μM] / COX-2” value on COX-2 turned out to be 60.75 ± 0.02 µM. The “Cyclooxygenase Inhibition Assay IC50 [μM] / COX-1” value at COX-1 worked out at 78.73 ± 0.06 µM.

The record behind these values is paper PMC7866801, “Design and Synthesis of N-Substituted 3,4-Pyrroledicarboximides as Potential Anti-Inflammatory Agents” (International Journal of Molecular Sciences, 2021).
